Data reported in patent publication US20250388597A1, “BIFUNCTIONAL PHOTOCROSSLINKING PROBES FOR COVALENT CAPTURE OF PROTEIN-NUCLEIC ACID COMPLEXES IN CELLS” (UNIVERSITY OF SOUTHERN CALIFORNIA, priority 2022, published 2025).
Entries after “also recorded” stand apart in the source; their conditions may differ.

What was measured:
NFAT1/DNA complex = molecular target: T1, NFAT1/DNA complex (Homo sapiens, UniProt Q13469); assay: In vitro photo-crosslinking of assembled NFAT1/DNA complex, denaturing SDS gel; assay type: biochemical; details: for formation of covalent NFAT1/DNA crosslinked complex stable under denaturing SDS-PAGE: probe + UV 365 nm, 2% SDS, boil 10 min
T1 construct: human NFAT1 protein (residue 399-676, NFAT1-DBD)
T1 sequence (Q13469 399-676): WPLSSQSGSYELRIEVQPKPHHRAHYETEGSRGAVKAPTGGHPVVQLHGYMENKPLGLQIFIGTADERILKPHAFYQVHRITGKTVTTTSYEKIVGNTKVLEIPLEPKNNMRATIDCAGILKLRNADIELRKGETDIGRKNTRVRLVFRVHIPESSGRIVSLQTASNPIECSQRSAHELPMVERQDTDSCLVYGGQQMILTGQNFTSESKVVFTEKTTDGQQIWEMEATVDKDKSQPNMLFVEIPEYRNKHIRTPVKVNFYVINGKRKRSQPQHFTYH
Description: The probe binding and UV crosslinking were carried out as described in FIG. 5G and FIG. 7. The crosslinked complexes (lane 3 and lane 6) were further treated with DTT (100 mM, heat 50 degree C. for 30 min). The reaction mixtures were run on SDS gel and visualized by FAM fluorescence for DNA (top) and by Coomassie blue stain for protein (bottom) as described in FIG. 7. FIG. 7 depicts denaturing SDS gel analysis of covalent capture of in vitro assembled MEF2/DNA and NFAT1/DNA complexes by the BFPX probe, SPB-AAD. […] The protein/DNA complexes are incubated at room temperature for 30 min, and treated with various combination of BFPX probe (SPB-AAD) and UV illumination as described in FIG. 5G. […] The reaction mixtures were added SDS loading dye (2% SDS), boil for 10 min, and run on SDS gel (Bio-Rad Any Kd gradient gel). The same gel was visualized by FAM fluorescence for DNA (top) and by Coomassie blue stain for protein (bottom). FIG. 8C depicts denaturing SDS gel analysis of covalent capture of in vitro assembled MEF2/DNA and NFAT1/DNA complexes by the BFPX probe, SPB-PEG3-AAD. […] The reaction mixtures were run on SDS gel and visualized by FAM fluorescence for DNA (top) and by Coomassie blue stain for protein (bottom) as described in FIG. 7. […] Typically protein and DNA are mixed to bind at room temperature for 30 min, followed by addition of BFPX probes for an additional 15 min and then UV illumination. In the case of FA treatment, the reaction time is 10 min at room temperature and then quenched by 250 mM glycine. […] The UV illumination (as indicated by a positive sign) was carried out using a LED Chip (21.4 mm×21.4 mm, 365-370 nm, 30 Watt, sample distance 2 cm, exposure time 2-15 min at 4 degree C., here the exposure time is 15 min). […] The small amount of single stranded DNA is due to incomplete annealing. The higher smearing bands are most likely non-specific protein complexes. Neither of these experimental imperfections affected the main conclusion of this experiment because the double stranded-DNA bands and the specific NFAT-DNA complex bands (the middle sharp bands) are well defined and can be monitored without the interference of the other bands. […] The gel was visualized by Cy5 fluorescence for DNA. FIG. 12E depicts further characterization of BFPX crosslinking of NFAT1/DNA complexes using different DNA substrates and staining techniques. Two unlabeled DNA substrates containing a core NFAT-binding site and different flanking bases and sequence lengths ([…] ID NO: 4), 21 mer, c2: [NT] ID NO: 5), 16 mer) were used to bind the NFAT1-DBD as described in FIG. 12C. […] The reactions were then analyzed by SDS PAGE under denaturing condition as described in FIG. 12D. Because the DNA is unlabeled, the gel was stained using either cyanine-based dye (SYBR Safe) or Coomassie Blue stain (CB). […] The different size of the NFAT-c1DNA complexes (lane 2) and NFAT-c2DNA complexes (lane 4) was resolved by loading reactions of lane 2 (2a, 2b and 2c) and lane 4 (4a, 4b and 4c) as triplicates side-by-side on the same gel (lower panel) using either SYBR and CB stain. FIG. 12F depicts time course of BFPX crosslinking of NFAT1/DNA complexes. […] The reactions at different time points were then analyzed on SDS gel as described in FIG. 12D. […] When the UV exposure time is longer than 5 min, a significant amount of crosslinked NFAT-DNA complex can be formed with UV illumination without SPB-AAD.

p53/DNA complex = molecular target: T2, p53/DNA complex (Homo sapiens, UniProt P04637); assay: BFPX crosslinking of p53/DNA complexes, SDS PAGE; assay type: biochemical; details: denaturing SDS PAGE; probes with UV; vs no-protein controls
T2 construct: the human tumor suppressor p53 DBD; made in house
Description: FIG. 12I depicts BFPX crosslinking of p53/DNA complexes. The binding reactions between the human tumor suppressor p53 DBD and a 37 mer Cy5 labeled DNA containing a consensus p53 tetramer binding site (5′-/5Cy5/-[…]-3′, (SEQ ID NO: 8)) were set up and treated with BFPX probes and UV illumination as described in FIG. 12C. The various treatment combinations were list above the gel. The reactions were then analyzed by SDS PAGE under denaturing condition as described in FIG. 12D. […] Because p53 bind this this DNA substrate as a tetramer, crosslinked p53/DNA complexes may contain one or more p53 protein molecules. While the monomeric p53/DNA complex appears to be the dominant crosslinked protein-DNA complexes, higher-molecule weight species were visible in SDS gel, which may correspond to crosslinked higher-order p53/DNA complex.

T2 sequence (P04637 102-292 limits assumed, one chain of several): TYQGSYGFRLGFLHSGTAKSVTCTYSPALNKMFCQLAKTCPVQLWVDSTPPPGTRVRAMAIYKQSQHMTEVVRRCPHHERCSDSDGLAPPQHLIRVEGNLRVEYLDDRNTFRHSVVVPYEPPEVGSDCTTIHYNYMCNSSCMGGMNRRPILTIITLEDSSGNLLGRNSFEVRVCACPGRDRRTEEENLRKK

SMILES | formation of covalent NFAT1/DNA crosslinked complex stable under denaturing SDS-PAGE (NFAT1/DNA complex) | low probe concentration at which a significant amount of crosslinked protein complex was observed (NFAT1/DNA complex; NFAT1/DNA, FIG. 7 lane 12, UV 365 nm) [µM] | UV illumination time at which crosslinked complex was visible (NFAT1/DNA complex; NFAT1/DNA, probe 100 μM) [s] | UV illumination time at which crosslinking reached plateau (NFAT1/DNA complex; NFAT1/DNA, probe 100 μM, plateau around 100 seconds and 5 min time points) | crosslinking of the p53/DNA complex (p53/DNA complex)
C#CCCC1(CCNC(=O)CCOCCOCCOCCC(=O)NCCNC(=O)CCCOc2c3occc3cc3ccc(=O)oc23)N=N1 [SPB-PEG3-AAD] | highly efficient crosslinking |  |  |  | 
C#CCCC1(CCNC(=O)CCCOc2c3occc3cc3ccc(=O)oc23)N=N1 [SPB-AAD, N-(2-(3-(but-3-yn-1-yl)-3H-diazirin-3-yl)ethyl)-4-((7-oxo-7H-furo[3,2-g]chromen-9-yl)oxy)butanamide] | dosage dependent crosslinking of NFAT1/DNA complexes; also recorded: formation of complexes that run as larger molecular species than both free protein and DNA; also recorded: NFAT was crosslinked to c1 DNA (lane 2) and c2 DNA (lane 4) in the presence of UV | 0.125 | 3 | around 100 seconds | significant crosslinking of the p53/DNA complex
C#CCCC1(CCNC(=O)CCOCCOCCOCCOCCNC(=O)CCCOc2c3occc3cc3ccc(=O)oc23)N=N1 [SPB-PEG4-AAD, N-(2-(3-(but-3-yn-1-yl)-3H-diazirin-3-yl)ethyl)-1-(4-((7-oxo-7H-furo[3,2-g]chromen-9-yl)oxy)butanamido)-3,6,9,12-tetraoxapentadecan-15-amide] | dosage dependent crosslinking of NFAT1/DNA complexes |  |  |  | significant crosslinking of the p53/DNA complex
